From patent US20220087987A1, “A METHOD FOR TREATING SWI/SNF COMPLEX-DEFICIENT CANCERS COMPRISING GLUTATHIONE (GSH) METABOLIC PATHWAY INHIBITOR” (National Cancer Center, priority 2018, published 2022)

Columns and labels:
p53, p21 = experiment: Immunoblot for p53 and p21; format: cell-based, human; settings: ARID1A-WT and ARID1A-KO HCT116; 50 μM PRIMA-1, 50 μM APR-246, 10 μM Nutlin3a, 16 hrs
Method: The soluble fractions of whole-cell lysates were mixed with SDS sample buffer. […] The soluble fractions were mixed with SDS sample buffer. Tumor samples derived from xenografts were weighed and washed with PBS. […] The homogenized tumor samples were diluted in an additional 450 μl of NETN420 buffer, incubated for 30 min on ice, and centrifuged at 4° C. for 10 min at 15,000 rpm. The soluble fractions of whole-cell lysates were mixed with SDS sample buffer. Proteins were separated by SDS-PAGE, transferred to PVDF membranes, and immunoblotted with the indicated antibodies. β-actin was used as a loading control. Membranes were blocked overnight at 4° C. or for 1 hr at 25° C. with PVDF Blocking Reagent for Can Get Signal (TOYOBO) and then probed with Can Get Signal Solution 1 (TOYOBO) containing primary antibodies. After washing with TBS containing 0.1% Tween 20, the membranes were incubated with TBS containing 0.1% Tween 20, 1% BSA, and horseradish peroxidase-conjugated anti-mouse or anti-rabbit secondary antibodies, and visualized using Western Lightning ECL Pro (Perkin Elmer). Chemiluminescence signals were measured using LAS-3000 Imaging System (Fujifilm). Signal intensities were measured using Multi Gauge software.

[1] = system: ARID1A-WT and ARID1A-KO HCT116 cells; experiment: Cell viability and colony formation assays; format: cell-based, human; settings: cell viability 5 days, colony formation 10 days
Method: Cell viability was examined by measuring the cellular ATP level using the CellTiter-Glo Luminescent Cell Viability Assay (Promega). To measure cell viability after siRNA-mediated knockdown, cell lines were transfected with siRNAs (25 nM) using Lipofectamine RNAiMAX. After 48 hrs, cells were trypsinized and repeatedly transfected with siRNAs (25 nM) using Lipofectamine RNAiMAX. Cells were trypsinized after a further 48 hrs, counted, and reseeded at the specified density in 96-well plates. To measure cell viability after drug treatment, cells were trypsinized, counted, reseeded at the specified density in 96-well plates, and exposed to the indicated concentrations of drugs. Cell viability was measured using the CellTiter-Glo Luminescent Cell Viability Assay. Luminescence was measured using an Envision Multi-label plate reader (PerkinElmer).
The effect of drug treatment on cancer cell survival was evaluated in a colony formation assay. Cells were trypsinized, counted, reseeded at the specified density in 12-well plates, exposed to the indicated concentrations of drugs for 10-14 days, and fixed for 10 min in 50% (v/v) methanol containing 0.01% (w/v) crystal violet. Images were taken on LAS-3000 Imaging System (Fujifilm) and colonies were counted using Multi Gauge software.

ARID1A-WT HCT116 cells = experiment: Drug library screen, cell viability (CellTiter-Glo); format: cell-based, human; parameters: key to Cell viability, WT: % viability relative to DMSO solvent-treated cells; settings: HCT116 ARID1A-WT; 10 μM for 5 days; relative to cells treated with solvent (DMSO)
How it was run: (§1)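 ARID1A-WT and ARID1A-KO HCT116 cells screened against the library; viability read after 5 days by CellTiter-Glo luminescence, expressed relative to DMSO-treated cells. Hits: KO viability below 40% with WT viability above 80%.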

[2] = system: ARID1A-deficient OVISE OCCC xenografts; experiment: Mouse xenograft model, OVISE; format: in vivo, mice; settings: PRIMA-1 25 mg/kg
Method: All mouse experiments were approved by the National Cancer Center (NCC) animal Ethical Committee. Cells were counted and re-suspended in a 1:1 mixture of 100 μl culture medium and 100 μl Matrigel (BD Biosciences) on ice. Thereafter, cells (RMG-I: 2×10^6 cells/mouse; TOV21G: 2×10^5 cells/mouse for ARP-246 treatment and 1×10^6 cells/mouse for BSO treatment; OVISE: 2×10^6 cells/mouse; TOV21G-shNT: 2×10^5 cells/mouse; and TOV21G-shGCLC: 2×10^5 cells/mouse) were injected subcutaneously into the flank of 6-week-old female BALB/c-nu/nu mice (CLEA and Charles River). In the subcutaneous model, once the tumors were palpable (about 3-14 days after implantation), mice were randomly divided into two groups. In the drug treatment group, mice were injected intraperitoneally with either PBS or compounds [APR-246 (50 mg/kg), PRIMA-1 (25 mg/kg), or BSO (750 mg/kg)] once daily for 12-14 days. In the doxycycline (Dox) treatment study, TOV21G-shNT cells and TOV21G-shGCLC cells were injected into the flanks of 6-week-old female BALB/c-nu/nu mice. […] Tumor growth was measured every several days using calipers. The volume of implanted tumors was calculated using the formula V=L×W2/2, where V is volume (mm^3), L is the largest diameter (mm), and W is the smallest diameter (mm). […]

ARID1A-KO HCT116 cells = experiment: Drug library screen, cell viability (CellTiter-Glo); format: cell-based, human; parameters: key to Cell viability, KO: % viability relative to DMSO solvent-treated cells; settings: HCT116 ARID1A-KO, 10 μM for 5 days, relative to cells treated with solvent (DMSO); for viability at 10 µM: Homo sapiens, HCT-116, 120 h, read-out: Cell viability, KO
How it was run: as §1

[3] = system: ARID1A-proficient and ARID1A-deficient cancer cell lines; experiment: Cell viability and colony formation in cancer cell line panel; format: cell-based, human
GSH = experiment: Detection of GSH in cells (GSH/GSSG-Glo, GSH-Glo); format: cell-based, human; settings: ARID1A-deficient versus ARID1A-proficient ovarian and other cancer cells
ROS = experiment: Detection of ROS in cells (ROS-Glo); format: cell-based, human; settings: ARID1A-deficient versus ARID1A-proficient ovarian and other cancer cells
Method: GSH, ROS and apoptosis were detected using the GSH/GSSG-Glo Assay (Promega) and/or the GSH-Glo Assay (Promega), the ROS-Glo Assay (Promega), and the Caspase-Glo 3/7 Assay, respectively. To measure levels of GSH, ROS and apoptosis after drug treatment, cells were trypsinized, counted, reseeded at the specified density in 96-well plates and exposed to the indicated concentrations of drugs. After 16-48 hrs, luminescence was measured using an Envision Multi-label plate reader (PerkinElmer). To measure levels of GSH and ROS after siRNA-mediated knockdown, cell lines were transfected with siRNAs (25 nM) using Lipofectamine RNAiMAX. After 48 hrs, cells were trypsinized and transfected repeatedly with siRNAs (25 nM) using Lipofectamine RNAiMAX. Cells were trypsinized after a further 48 hrs, counted, and reseeded at the specified density in 96-well plates. After 72-120 hrs, luminescence was measured using an Envision Multi-label plate reader (PerkinElmer). Cell viability was also measured using the CellTiter-Glo Luminescent Cell Viability Assay (Promega). Caspase-3/7, GSH, and ROS levels were normalized against cell viability. The GSH/GSSG ratio was calculated as the GSH-GSSG signal divided by the GSSG/2 signal. Relative signal ratios in treated samples were normalized against untreated samples.

[4] = Drug library screen, cell viability (CellTiter-Glo); format: cell-based, human; parameters: key to Cell viability, WT: % viability relative to DMSO solvent-treated cells; settings: human; HCT116 ARID1A-WT; 10 μM for 5 days; relative to cells treated with solvent (DMSO); read-out: Cell viability, WT
How it was run: as §1

Row | SMILES | viability at 5 days, 10 μM [4] [%] | viability at 10 µM (ARID1A-KO HCT116 cells) [%] | also measured
1 | COc1ccc(C2=N[C@@H](c3ccc(Cl)cc3)[C@@H](c3ccc(Cl)cc3)N2C(=O)N2CCNC(=O)C2)c(OC(C)C)c1 [Nutlin3a] | – | – | expression of p53 and p21 (p53, p21): increased the p53 level and upregulated the p53 target p21
2 | O=C1C2CCN(CC2)C1(CO)CO [PRIMA-1] | – | – | expression of p53 and p21 (p53, p21): did not markedly affect expression of p53 or p21; growth / survival of ARID1A-KO versus ARID1A-WT cells [1]: reproducibly suppressed the growth of ARID1A-KO cells but not ARID1A-WT cells; Cell viability, WT (ARID1A-WT HCT116 cells): 84.25; body weight of mice [2]: without causing significant weight loss; growth of xenografts (tumor volume) [2]: significantly suppressed the growth; Cell viability, KO (ARID1A-KO HCT116 cells): 12.95
3 | CC(=O)OC[C@H]1O[C@@H]([S-])[C@H](OC(C)=O)[C@@H](OC(C)=O)[C@@H]1OC(C)=O.CCP(CC)CC.[Au+] [auranofin] | – | – | sensitivity of ARID1A-deficient versus ARID1A-proficient cancer cells ([3]; four ARID1A-proficient and six ARID1A-deficient cell lines, cell viability, colony formation): more sensitive to the TrxR inhibitor auranofin than ARID1A-proficient cells; GSH level in cancer cell lines (GSH): more evident in ARID1A-deficient cancer cells; ROS level in cancer cell lines (ROS): more evident in ARID1A-deficient cancer cells
4 | CS(=O)(=O)CCNCc1ccc(-c2ccc3ncnc(Nc4ccc(OCc5cccc(F)c5)c(Cl)c4)c3c2)o1 [lapatinib] | 52.7 | 78.4 | –
5 | Nc1cccc2c1CN(C1CCC(=O)NC1=O)C2=O (stereo not drawn) [lenalidomide] | 91.1 | 112 | –
6 | Cc1cn(-c2cc(NC(=O)c3ccc(C)c(Nc4nccc(-c5cccnc5)n4)c3)cc(C(F)(F)F)c2)cn1 [nilotinib] | 85.8 | 91.6 | –
7 | CCCCCCCCCCC[C@@H](C[C@@H]1OC(=O)[C@H]1CCCCCC)OC(=O)[C@H](CC(C)C)NC=O [orlistat] | 84.6 | 86.1 | –
8 | Cc1ccc(Nc2nccc(N(C)c3ccc4c(C)n(C)nc4c3)n2)cc1S(N)(=O)=O [pazopanib] | 19.8 | 39.8 | –
9 | CNC(=O)c1cc(Oc2ccc(NC(=O)Nc3ccc(Cl)c(C(F)(F)F)c3)cc2)ccn1 [sorafenib] | 61.4 | 70.4 | –
10 | O=C(O)c1cc(/N=N/c2ccc(S(=O)(=O)Nc3ccccn3)cc2)ccc1O [sulfasalazine] | – | – | sensitivity of ARID1A-deficient TOV21G versus ARID1A-proficient RMG-I ovarian cancer cells ([3]; cell viability after 3 days): more sensitive than ARID1A-proficient RMG-I ovarian cancer cells
11 | CCN(CC)CCNC(=O)c1c(C)[nH]c(/C=C2\C(=O)Nc3ccc(F)cc32)c1C [sunitinib malate] | 3.23 | 5.95 | –
12 | CC(C)(C)c1cc(O)ccc1O [t-Butylhydroquinone (BHQ), t-Butylhydroquinone] | 95.4 | 96.6 | –
13 | CC1(C)CCC(C)(C)c2cc(NC(=O)c3ccc(C(=O)O)cc3)ccc21 [tamibarotene] | 77.3 | 101 | –
14 | Cn1nnc2c(C(N)=O)ncn2c1=O [temozolomide] | 84.4 | 104 | –
15 | CO[C@H]1C[C@@H]2CC[C@@H](C)[C@@](O)(O2)C(=O)C(=O)N2CCCC[C@H]2C(=O)O[C@H]([C@H](C)C[C@@H]2CC[C@@H](OC(=O)C(C)(CO)CO)[C@H](OC)C2)CC(=O)[C@H](C)/C=C(\C)[C@@H](O)[C@@H](OC)C(=O)[C@H](C)C[C@H](C)/C=C/C=C/C=C/1C [temsirolimus] | 82.1 | 75 | –
16 | O=C1CCC(N2C(=O)c3ccccc3C2=O)C(=O)N1 (stereo not drawn) [thalidomide] | 95 | 107 | –
17 | CC1=C(/C=C/C(C)=C/C=C/C(C)=C/C(=O)O)C(C)(C)CCC1 [tretinoin] | 77.7 | 96.3 | –
18 | O=C(CCCCCCC(=O)Nc1ccccc1)NO [vorinostat] | 2.82 | 6.02 | –
